The text below walks through data of patent publication US20100048575A1, “NOVEL TETRACYCLIC INHIBITORS OF CYSTEINE PROTEASES, THE PHARMACEUTICAL COMPOSITIONS THEREOF AND THEIR THERAPEUTIC APPLICATIONS” (priority 2006, published 2010).

Test [1] relates to HCT116 colon cancer cells. Put plainly: HCT116 cell viability and proliferation assay (MTS). The class given is cell-based. Particulars: Homo sapiens, HCT-116, 72 hours, mean of 3 independent experiments, read-out: HCT116 GI50 D3. The procedure: HCT116 colon cancer cells were obtained from ATCC (American Type Culture Collection), and maintained in Mc Coy's 5A medium containing 10% FBS, 3 mM glutamine and 1% penicillin/streptomycin. Cells were incubated at 37° C. in a humidified atmosphere containing 5% CO2.
Cell viability was assayed using the MTS technique in 96-well culture plates (CellTiter 96® Aqueous Non-Radioactive Cell Proliferation Assay, Promega) according to the manufacturer's instructions. MTS (3-(4,5-dimethylthiazol-2-yl)-5-(3-carboxymethoxyphenyl)-2-(4-sulfophenyl)-2H-tetrazolium) is a MTT-derived tetrazolium that is reduced in metabolically active cells into a soluble, cell-permeant formazan. The amount of formazan, detected by its absorbance at 492 nm is proportional to the number of living, metabolically active cells.
10^3 HCT116 cells were seeded per well. 24 hours later, the medium was changed and the cells treated in triplicate with the following concentrations of each compound: 10 μM-3.33 μM-1.11 μM-370 nM-123 nM-41 nM-14 nM and 5 nM. The compounds were diluted in 100% DMSO, whose final concentration on cells was kept at 0.5%.
Cells were incubated with the compounds for 72 hours, and their viability then assayed by the addition of MTS for 2 hours. Absorbance at 492 nm was measured directly from the 96-well culture plates. GI50 (Growth Inhibition 50) concentrations for each compound were calculated using a sigmoidal variable slope fit (Prism 4.0, Graphpad Softwares). Values represent mean of 3 independent experiments.

For a further test, the target named is T1, USP5 (Homo sapiens, UniProt P45974).
T1 sequence (P45974 1-858): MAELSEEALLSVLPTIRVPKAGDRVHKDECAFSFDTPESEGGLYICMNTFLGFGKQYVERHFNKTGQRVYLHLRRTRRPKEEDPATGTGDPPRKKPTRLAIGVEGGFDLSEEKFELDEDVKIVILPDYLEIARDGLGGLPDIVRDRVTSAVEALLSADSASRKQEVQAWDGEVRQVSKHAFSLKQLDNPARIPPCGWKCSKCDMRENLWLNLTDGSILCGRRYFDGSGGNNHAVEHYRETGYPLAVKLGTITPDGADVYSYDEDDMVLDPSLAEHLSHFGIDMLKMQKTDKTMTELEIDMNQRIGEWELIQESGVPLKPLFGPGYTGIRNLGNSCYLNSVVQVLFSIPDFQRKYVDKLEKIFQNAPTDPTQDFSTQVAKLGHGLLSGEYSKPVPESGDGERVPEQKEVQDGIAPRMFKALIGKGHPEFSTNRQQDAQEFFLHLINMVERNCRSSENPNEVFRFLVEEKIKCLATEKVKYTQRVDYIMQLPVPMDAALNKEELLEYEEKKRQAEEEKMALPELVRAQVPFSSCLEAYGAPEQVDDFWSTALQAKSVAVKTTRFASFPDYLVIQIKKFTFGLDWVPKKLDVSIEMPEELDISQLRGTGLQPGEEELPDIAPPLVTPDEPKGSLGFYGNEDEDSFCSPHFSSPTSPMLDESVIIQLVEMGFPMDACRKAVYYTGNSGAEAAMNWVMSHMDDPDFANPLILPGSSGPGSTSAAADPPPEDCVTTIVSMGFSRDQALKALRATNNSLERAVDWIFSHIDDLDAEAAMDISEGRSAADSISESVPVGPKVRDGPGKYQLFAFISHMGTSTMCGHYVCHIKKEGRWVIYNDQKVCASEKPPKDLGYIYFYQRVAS
Nature of the test: USP5 activity assay (Ub-AMC). The class given is biochemical. Particulars: 400 nM Ub-AMC, 300 pM enzyme, 30 min pre-incubation, 60 min at 37° C., sigmoidal fit; read-out: USP5 (inhibition of cysteine protease activity). On the procedure:
USP5 was diluted in USP buffer (50 mM Tris HCl; 0.5 mM EDTA; 5 mM DTT; 0.01% Triton X-100; Bovine Serum Albumin 0.05 mg.ml^−1 pH7.6). Compounds stocks (100 mM) were stored at −20° C. in DMSO.
Reactions were performed as duplicates in Black LJL 96 well plates (HE microplates; Molecular Devices; 20 μl final reaction volume). The substrate concentration for USP5 was 400 nM Ub-AMC (Boston Biochem). The concentrations of the enzyme (USP5) in specificity assays was 300 pM. The concentrations were determined in order to perform specificity assays under initial velocities at fixed substrate concentration. Compounds were pre-incubated with enzymes for 30 minutes at 25° C. Reactions were initiated by addition of substrate to the plates containing the enzymes (+/−compounds) diluted in assay buffer. Reactions were incubated for 60 minutes at 37° C. Reactions were stopped by adding acetic acid (100 mM final). Readings were performed on a Pherastar Fluorescent Reader (BMG). λ Emission 380 nm; λ Excitation=460 nm. Data (mean values +/−standard deviation) were analyzed as % of control (no compound) and plotted as percentage versus the Log of the compound concentration using GraphPad (Prism). Data were fitted to a sigmoidal model (variable slope).

The target of the next test is Cathepsin B (Homo sapiens, UniProt P07858). Nature of the test: Cathepsin B activity assay (z-RR-AMC). The class given is biochemical. The settings on record: 36 μM z-RR-AMC, 3.6 nM enzyme, 30 min pre-incubation, 60 min at 37° C., sigmoidal fit; read-out: cathepB (inhibition of cysteine protease activity). The procedure: Cathepsin B was diluted in Cathepsin B buffer (20 mM Tris HCl pH 6.8; 1 mM EDTA; 1 mM DTT). Compounds stocks (100 mM) were stored at −20° C. in DMSO. Compounds were tested at the following final concentrations: 100 μM; 33.3 μM; 11.1 μM; 3.7 μM; 1.23 μM; 412 nM; 137 nM; 45.7 nM; 15.2 nM; 5 nM. Reactions were performed as duplicates in Black LJL 96 well plates (HE microplates; Molecular Devices; 20 μl final reaction volume). The substrate concentration for cathepsin B specificity assay was 36 μM (z-RR-AMC; Calbiochem). The concentration of the enzyme (Cathepsin B) in specificity assays was 3.6 nM. The concentrations were determined in order to perform specificity assays under initial velocities at fixed substrate concentration. Compounds were pre-incubated with enzymes for 30 minutes at 25° C. Reactions were initiated by addition of substrate to the plates containing the enzymes (+/−compounds) diluted in assay buffer. Reactions were incubated for 60 minutes at 37° C. Reactions were stopped by adding acetic acid (100 mM final). Readings were performed on a Pherastar Fluorescent Reader (BMG). δ Emission 380 nm; δ Excitation=460 nm. Data (mean values +/−standard deviation) were analyzed as % of control (no compound) and plotted as percentage versus the Log of the compound concentration using GraphPad (Prism). Data were fitted to a sigmoidal model (variable slope).

Usually GI50 stands for the concentration at which growth is held to half of that of the control. Regarding `CON=C1c2ccccc2-c2nn3c(C)nnc3nc21` (mixture of isomers) [5a, 3-Methyl-1,2,3a,4,10-pentaaza-cyclopenta[b]fluoren-9-one O-methyl-oxime], the GI50 in test [1] turned out to be 1400 nM. In addition, the IC50 was 1800 nM at USP5 and 2600 nM on Cathepsin B.
In the case of `C=CCON=C1c2ccccc2-c2nn3c(C)nnc3nc21` (mixture of isomers) [5b, 3-Methyl-1,2,3a,4,10-pentaaza-cyclopenta[b]fluoren-9-one O-allyl-oxime], in test [1], the GI50 was 1640 nM. Moreover, the IC50 on USP5 stood at 1150 nM.
Take `C=CCON=C1c2ccccc2-c2nn3c(CCCC)nnc3nc21` (mixture of isomers) [5d, 3-Butyl-1,2,3a,4,10-pentaaza-cyclopenta[b]fluoren-9-one O-allyl-oxime]: in test [1], the GI50 came to 1010 nM. Moreover, the IC50 on USP5 turned out to be 1420 nM; at Cathepsin B, 6700 nM.
Take `CCCCCCCCCCON=C1c2ccccc2-c2nn3nnnc3nc21` (mixture of isomers) [8a, 1,2,3,3a, 4,10-Hexaaza-cyclopenta[b]fluoren-9-one O-decyl-oxime]: in test [1], the GI50 worked out at 398 nM. The figures for the IC50 at USP5 and on Cathepsin B were 54000 nM and 15800 nM, respectively.
Regarding `COCCON=C1c2ccccc2-c2nn3nnnc3nc21` (mixture of isomers) [8b, 1,2,3,3a, 4,10-Hexaaza-cyclopenta[b]fluoren-9-one O-(2-methoxy-ethyl)-oxime], the GI50 in test [1] was 273 nM. In addition, the IC50 at Cathepsin B was 2100 nM.
Regarding `c1ccc(OCCCON=C2c3ccccc3-c3nn4nnnc4nc32)cc1` (mixture of isomers) [8c, 1,2,3,3a,4,10-Hexaaza-cyclopenta[b]fluoren-9-one O-(3-phenoxy-propyl)-oxime], the 50% growth inhibitory concentration (GI50) in test [1] came to 265 nM. In addition, the values for the IC50 at USP5 and at Cathepsin B were 470 nM and 3800 nM, respectively.
For `CCc1nnc2nc3c(nn12)-c1ccccc1C3=NOC` (mixture of isomers) [10b, 3-Ethyl-1,2,3a,4,10-pentaaza-cyclopenta[b]fluoren-9-one O-methyl-oxime], the concentration for 50% growth inhibition (GI50) in test [1] was 3360 nM.
On to `CCON=C1c2ccccc2-c2nn3c(CC)nnc3nc21` (mixture of isomers) [10d, 3-Ethyl-1,2,3a,4,10-pentaaza-cyclopenta[b]fluoren-9-one O-ethyl-oxime], for which the GI50 in test [1] is 3930 nM.
`C=CCON=C1c2ccccc2-c2nn3c(CC)nnc3nc21` (mixture of isomers) [10f, 3-Ethyl-1,2,3a,4,10-pentaaza-cyclopenta[b]fluoren-9-one O-allyl-oxime]: in test [1], the 50% growth inhibitory concentration (GI50) turned out to be 2100 nM. Further, the IC50 on USP5 was determined as 1200 nM.
As for `CCc1nnc2nc3c(nn12)-c1ccccc1C3=NOCc1ccccc1` (mixture of isomers) [10h, 3-Ethyl-1,2,3a,4,10-pentaaza-cyclopenta[b]fluoren-9-one O-benzyl-oxime], the GI50 in test [1] was found to be 1910 nM.
Take `C=CCON=C1c2ccccc2-c2nn3nnnc3nc21` (mixture of isomers) [compound 6, 1,2,3,3a,4,10-hexaaza-cyclopenta[b]fluoren-9-one O-allyl-oxime]: the GI50 in test [1] was determined as 96 nM. Besides, the IC50 at Cathepsin B amounted to 300 nM.
For the compound `ON=C1c2ccccc2-c2nn3nnnc3nc21` (mixture of isomers) [compound 7, 1,2,3,3a,4,10-hexaaza-cyclopenta[b]fluoren-9-one oxime], the GI50 in test [1] was 363 nM. Moreover, the IC50 at Cathepsin B turned out to be 890 nM.
